Measured values as given in patent publication US8420657B2 (Novartis AG, priority 2008, dated 2013).

Experiments:
GST-JAK2(808-1132) = biological target: T1, GST-JAK2(808-1132) (Homo sapiens, UniProt O60674); experiment: JAK2 kinase assay (Caliper mobility shift, LabChip 3000); type: biochemical
T1 construct: GST-JAK2(808-1132); purchased Invitrogen (Carlsbad, USA) #4288
Method in brief: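 Recombinant GST-JAK2(808-1132) kinase domain with FITC-labelled JAK3tide peptide substrate and ATP; 60 min at 30 °C, EDTA stop. Substrate/product ratio read by microfluidic mobility shift; compounds at 8 final concentrations, 10 to 0.003 μM.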

[1] = tested on: JAK1/JAK2-dependent nuclear translocation of STAT1-GFP in HT1080 fibrosarcoma cells; experiment: STAT1 nuclear translocation assay (Cellomics), IFN-γ stimulated HT1080 STAT1-GFP cells; type: cell-based; conditions: Homo sapiens, HT-1080, STAT1 translocation pathway
Method in brief: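 HT1080 cells stably expressing STAT1-GFP, pre-treated 30 min with compound (10 μM–0.003 μM, 0.1% DMSO), then stimulated 2 h with 100 ng/ml IFN-γ, fixed and Hoechst-stained. Nuclear-cytoplasmic GFP differential imaged over ≥1000 cells/well, normalised to unstimulated and DMSO-stimulated wells for IC50.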

T1 sequence (O60674 808-1132): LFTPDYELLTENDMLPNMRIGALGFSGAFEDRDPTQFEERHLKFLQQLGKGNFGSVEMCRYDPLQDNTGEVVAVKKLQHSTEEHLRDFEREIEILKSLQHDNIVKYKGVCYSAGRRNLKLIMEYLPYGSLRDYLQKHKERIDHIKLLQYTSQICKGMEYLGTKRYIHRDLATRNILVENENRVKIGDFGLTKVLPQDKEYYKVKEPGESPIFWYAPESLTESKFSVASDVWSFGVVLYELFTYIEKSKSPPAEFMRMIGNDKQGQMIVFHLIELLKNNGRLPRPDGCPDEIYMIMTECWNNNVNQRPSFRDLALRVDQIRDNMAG

| Compound | IC50 (GST-JAK2(808-1132)) | IC50 [1] |
| --- | --- | --- |
| Cc1cc(Nc2ncc3ccn(-c4ccc(S(C)(=O)=O)cc4)c3n2)ccc1C(=O)N1CCCC1 [Example 75, {4-[7-(4-Methanesulfonyl-phenyl)-7H-pyrrolo[2,3-d]pyrimidin-2-ylamino]-2-methyl-phenyl}-pyrrolidin-1-yl-methanone] | < 3 nM | 82.5 nM |
| C[C@@H]1CN[C@@H](C)CN1c1ccc(Nc2ncc3ccn(-c4cc(F)c(C(=O)N5CCOCC5)c(F)c4)c3n2)cn1 (racemic) [Example 269, (4-{2-[6-((2R,5S)-2,5-Dimethyl-piperazin-1-yl)-pyridin-3-ylamino]-pyrrolo[2,3-d]pyrimidin-7-yl}-2,6-difluoro-phenyl)-morpholin-4-yl-methanone] | 10 nM | 465 nM |
| COc1cc(Nc2ncc3ccn(-c4ccc(S(=O)(=O)NC(C)(C)C)cc4)c3n2)cc(OC)c1OC [Example 8, N-tert-Butyl-4-[2-(3,4,5-trimethoxy-phenylamino)-pyrrolo[2,3-d]pyrimidin-7-yl]-benzenesulfonamide] | < 3 nM | 32 nM |
| COc1cc(Nc2ncc3ccn(-c4ccc(C(=O)N5CCOCC5)c(F)c4)c3n2)ccc1Cl [Example 295, {4-[2-(4-Chloro-3-methoxy-phenylamino)-pyrrolo[2,3-d]pyrimidin-7-yl]-2-fluoro-phenyl}-morpholin-4-yl-methanone] | 14.5 nM | 795 nM |
| O=C(c1ccc(Nc2ncc3ccn(-c4ccc(CN5CCOCC5)c(Cl)c4)c3n2)cc1)N1CCOCC1 [Example 175, {4-[7-(3-Chloro-4-morpholin-4-ylmethyl-phenyl)-7H-pyrrolo[2,3-d]pyrimidin-2-ylamino]-phenyl}-morpholin-4-yl-methanone] | < 3 nM | 275 nM |
| CN1CCN(c2cccc(Nc3ncc4ccn(-c5ccc(S(C)(=O)=O)cc5)c4n3)c2)CC1 [Example 17, [7-(4-Methanesulfonyl-phenyl)-7H-pyrrolo[2,3-d]pyrimidin-2-yl]-[3-(4-methyl-piperazin-1-yl)-phenyl]-amine] | < 3 nM | 20.5 nM |
| CCOc1ccc(Nc2ncc3ccn(-c4ccc(CN5CCOCC5)c(Cl)c4)c3n2)cc1OCC [Example 177, [7-(3-Chloro-4-morpholin-4-ylmethyl-phenyl)-7H-pyrrolo[2,3-d]pyrimidin-2-yl]-(3,4-diethoxy-phenyl)-amine] | 5.3 nM | 1040 nM |
| Cc1cc(Nc2ncc3ccn(-c4ccc(C5(C(=O)N6CCN(C)CC6)CC5)cc4)c3n2)ccc1F [Example 122, (1-{4-[2-(4-Fluoro-3-methyl-phenylamino)-pyrrolo[2,3-d]pyrimidin-7-yl]-phenyl}-cyclopropyl)-(4-methyl-piperazin-1-yl)-methanone] | 3.3 nM | 164 nM |
| CC(C)Oc1ccc(Nc2ncc3ccn(-c4ccc(CC(=O)N5CCN(C)CC5)cc4)c3n2)cc1 [Example 101, 2-{4-[2-(4-Isopropoxy-phenylamino)-pyrrolo[2,3-d]pyrimidin-7-yl]-phenyl}-1-(4-methyl-piperazin-1-yl)-ethanone] | < 3 nM | 180 nM |
| O=C(c1cccc(Nc2ncc3ccn(-c4cc(F)c(CN5CCOCC5)c(F)c4)c3n2)c1)N1CCOCC1 [Example 202, {3-[7-(3 5-Difluoro-4-morpholin-4-ylmethyl-phenyl)-7H-pyrrolo[2,3-d]pyrimidin-2-ylamino]-phenyl}-morpholin-4-yl-methanone] | 4.5 nM | 198 nM |
| COc1ccc(Nc2ncc3ccn(-c4ccc(C(=O)N5CCOCC5)c(F)c4)c3n2)cn1 [Example 225, {2-Fluoro-4-[2-(6-methoxy-pyridin-3-ylamino)-pyrrolo[2,3-d]pyrimidin-7-yl]-phenyl}-morpholin-4-yl-methanone] | 7.4 nM | 434 nM |
| Cc1cncc(Nc2ncc3ccn(-c4cc(F)c(C(=O)N5CCOCC5)c(F)c4)c3n2)c1 [Example 242, {2,6-Difluoro-4-[2-(5-methyl-pyridin-3-ylamino)-pyrrolo[2,3-d]pyrimidin-7-yl]-phenyl}-morpholin-4-yl-methanone] | 4.3 nM | 355 nM |
| O=C(NCCN1CCOCC1)c1ccc(-n2ccc3cnc(Nc4ccc(F)cc4)nc32)cc1 [Example 62, 4-[2-(4-Fluoro-phenylamino)-pyrrolo[2,3-d]pyrimidin-7-yl]-N-(2-morpholin-4-yl-ethyl)-benzamide] | 180 nM | 5390 nM |
| Cc1cc(Nc2ncc3ccn(-c4ccc(CN5CCS(=O)(=O)CC5)c(F)c4)c3n2)ccc1F [Example 125, {7-[4-(1,1-Dioxido-thiomorpholin-4-ylmethyl)-3-fluoro-phenyl]-7H-pyrrolo[2,3-d]pyrimidin-2-yl}-(4-fluoro-3-methyl-phenyl)-amine] | < 3 nM | 120 nM |
| CCN1CCCC1CNC(=O)c1cc(Nc2ncc3ccn(-c4ccc(S(C)(=O)=O)cc4)c3n2)ccc1F (centres unmarked) [Example 78, N-(1-Ethyl-pyrrolidin-2-ylmethyl)-2-fluoro-5-[7-(4-methanesulfonyl-phenyl)-7H-pyrrolo[2,3-d]pyrimidin-2-ylamino]-benzamide] | 29 nM | 545 nM |
| N#Cc1ccc(Nc2ncc3ccn(-c4cc(F)c(CN5CCS(=O)(=O)CC5)c(F)c4)c3n2)cc1 [Example 185, 4-{7-[4-(1,1-Dioxido-thiomorpholin-4-ylmethyl)-3,5-difluoro-phenyl]-7H-pyrrolo[2,3-d]pyrimidin-2-ylamino}-benzonitrile] | < 3 nM | 290 nM |
| O=C(c1c(F)cc(-n2ccc3cnc(Nc4ccncc4)nc32)cc1F)N1CCOCC1 [Example 217, {2,6-Difluoro-4-[2-(pyridin-4-ylamino)-pyrrolo[2,3-d]pyrimidin-7-yl]-phenyl}-morpholin-4-yl-methanone] | 7.3 nM | 993 nM |
| CN1CCN(C(=O)c2cccc(Nc3ncc4ccn(-c5ccc(S(C)(=O)=O)cc5)c4n3)c2)CC1 [Example 39, {3-[7-(4-Methanesulfonyl-phenyl)-7H-pyrrolo[2,3-d]pyrimidin-2-ylamino]-phenyl}-(4-methyl-piperazin-1-yl)-methanone] | 14 nM | 1370 nM |
| CN1CCN(c2cccc(Nc3ncc4ccn(-c5cc(F)c(CN6CCOCC6)c(F)c5)c4n3)c2)CC1 [Example 174, [7-(3,5-Difluoro-4-morpholin-4-ylmethyl-phenyl)-7H-pyrrolo[2,3-d]pyrimidin-2-yl]-[3-(4-methyl-piperazin-1-yl)-phenyl]-amine] | < 3 nM | 150 nM |
| CCN1CCN(Cc2ccc(Nc3ncc4ccn(-c5cc(F)c(CN6CCS(=O)(=O)CC6)c(F)c5)c4n3)cc2)CC1 [Example 188, {7-[4-(1,1-Dioxido-thiomorpholin-4-ylmethyl)-3,5-difluoro-phenyl]-7H-pyrrolo[2,3-d]pyrimidin-2-yl}-[4-(4-ethyl-piperazin-1-ylmethyl)-phenyl]-amine] | < 3 nM | 60 nM |
| C[C@@H]1CN(c2ccc(Nc3ncc4ccn(-c5cc(F)c(C(=O)N6CCOCC6)c(F)c5)c4n3)cn2)C[C@H](C)N1 [Example 266, (4-{2-[6-(cis-3,5-Dimethyl-piperazin-1-yl)-pyridin-3-ylamino]-pyrrolo[2,3-d]pyrimidin-7-yl}-2,6-difluoro-phenyl)-morpholin-4-yl-methanone] | 8.4 nM | 150 nM |
| Cc1ccc(Nc2ncc3ccn(-c4ccc(S(C)(=O)=O)cc4)c3n2)cn1 [Example 229, [7-(4-Methanesulfonyl-phenyl)-7H-pyrrolo[2,3-d]pyrimidin-2-yl]-(6-methyl-pyridin-3-yl)-amine] | 21 nM | 1580 nM |
| Cc1ccc(Nc2ncc3ccn(-c4ccc(C(=O)N5CCOCC5)cc4)c3n2)cc1F [Example 233, {4-[2-(3-Fluoro-4-methyl-phenylamino)-pyrrolo[2,3-d]pyrimidin-7-yl]-phenyl}-morpholin-4-yl-methanone] | 6.4 nM | 1180 nM |
| Cc1ccc(Nc2ncc3ccn(-c4cc(F)c(CN5CCNC(=O)C5)c(F)c4)c3n2)cc1C [Example 312, 4-{4-[2-(3,4-Dimethyl-phenylamino)-pyrrolo[2,3-d]pyrimidin-7-yl]-2,6-difluoro-benzyl}-piperazin-2-one] | 13 nM | 565 nM |
| C[C@@H]1CN(c2ccc(Nc3ncc4ccn(-c5ccc(S(C)(=O)=O)cc5)c4n3)cn2)C[C@H](C)N1 [Example 273, [6-(cis-3,5-Dimethyl-piperazin-1-yl)-pyridin-3-yl]-[7-(4-methanesulfonyl-phenyl)-7H-pyrrolo[2,3-d]pyrimidin-2-yl]-amine] | 6 nM | 190 nM |
| COCc1ccc(Nc2ncc3ccn(-c4cc(F)c(CN5CCCC5)c(F)c4)c3n2)cc1 [Example 179, [7-(3,5-Difluoro-4-pyrrolidin-1-ylmethyl-phenyl)-7H-pyrrolo[2,3-d]pyrimidin-2-yl]-(4-methoxymethyl-phenyl)-amine] | 10.4 nM | 1520 nM |
| CCN1CCCC1CNC(=O)c1ccc(Nc2ncc3ccn(-c4ccc(S(C)(=O)=O)cc4)c3n2)cc1 (centres unmarked) [Example 68, N-(1-Ethyl-pyrrolidin-2-ylmethyl)-4-[7-(4-methanesulfonyl-phenyl)-7H-pyrrolo[2,3-d]pyrimidin-2-ylamino]-benzamide] | < 3 nM | 105 nM |
| CN1CCN(C(=O)c2ccc(Nc3ncc4ccn(-c5cc(F)c(CN6CCOCC6)c(F)c5)c4n3)cc2)CC1 [Example 2, {4-[7-(3,5-Difluoro-4-morpholin-4-ylmethyl-phenyl)-7H-pyrrolo[2,3-d]pyrimidin-2-ylamino]-phenyl}-(4-methyl-piperazin-1-yl)-methanone] | 3.2 nM | 190 nM |
